# Laboratory results taken from patent US9095623B2, “Terminally-functionalized conjugates and uses thereof” (SmartCells, Inc., priority 2009, dated 2015).
# Assay: Blood glucose depression profile after subcutaneous injection in fasted normal non-diabetic rats
# Type: in vivo, Male Sprague-Dawley rats
# Method: Subcutaneous injections of the insulin-dextran were administered using 0.25 ml of a sterilized 1×PBS solution ([…] of equivalent insulin/ml) behind the neck of fasted normal non-diabetic rats (Male Sprague-Dawley, 200-250 g, n=4). Blood samples were collected via tail vein bleeding at −15 and 0 minutes, and at 15, 30, 45, 60, 90, 120, 180, 240, 300 and 360 minutes after injection.
# This example evaluates the in vivo pharmacodynamic profile of subcutaneously administered insulin-glycogen. The insulin-glycogen conjugate was synthesized according to Example 8. The bioactivity of the insulin-glycogen conjugate was evaluated by injecting a 2.5 equivalent U of insulin/kg dose behind the neck of fasted normal non-diabetic rats (Male Sprague-Dawley, 200-250 g, n=4). Blood samples were collected via tail vein bleeding at −15 and 0 minutes, and at 15, 30, 45, 60, 90, 120, 180, 240, 300 and 360 minutes after injection. […] This rapid action and elimination profile is due to the rapid enzymatic digestion of the high MW glycogen polymer chain following subcutaneous injection.
# [1] = 0.25 ml of 20 U of equivalent insulin/ml, FIG. 5
Substance,"glucose lowering as compared to the insulin-dextran conjugates (2.5 equivalent U of insulin/kg, FIG. 6)",time serum glucose levels remain depressed post injection [1],time to reach the glucose nadir (Tnadir) [1]
"insulin-glycogen: comparative conjugate of insulin and oyster glycogen (Type II) made by CNBr coupling, Example 8",lower glucose levels much more rapidly and to a greater extent,–,–
insulin-dextran: comparative conjugate of recombinant human insulin and dextran (MW 70K) made by CNBr coupling,–,at least five,about 3 hours
